System: LL-37-induced inflammation in mouse ears
Assay: LL37-induced model of rosacea in mice (ear thickness)
Assay type: in vivo
Conditions: topical to ears; p<0.05 vs. vehicle; FIG. 2
Description: LL37-Induced Model of Rosacea in Mice:
Prior to dosing, animals are lightly anaesthetized with isofluorane and baseline right and left ear thickness measurements are made with a digital caliper (Mitutoyo 293-340). At t=−1 hrs, animals are lightly anaesthetized with isoflurane to allow topical application (dorsal side) of 10 μL of FPR2 agonist formulated in a vehicle consisting of PBS:ethanol (50:50), or vehicle control to both ears. At t=0 hr, mice are re-anaesthetized. Following ear thickness measurements, 20 uL of LL-37 (100 μM) is injected into the right ear, while PBS is injected into the left ear. Additional ear thickness measurements are taken at t=3 and 6 hours. After the last time point, mice are euthanized by CO2 inhalation and ears collected for additional analyses.

Compound: CC[C@H](C)[C@H](NC(=O)Nc1ccc(Br)cc1)C(=O)NCC(=O)O [Compound 3, {[(2S,3S)-2-{[(4-bromophenyl)carbamoyl]amino}-3-methylpentanoyl]amino} acetic acid]
- inflammation induced by LL-37 in mouse ears: Anti-inflammatory activity

Source: US10799518B2, “Use of agonists of formyl peptide receptor 2 for treating dermatological diseases” (Allergan, Inc., priority 2013, dated 2020)
